Laboratory results reported in patent US9695159B2, “Process for preparation of canagliflozin” (Glenmark Pharmaceuticals Limited, priority 2014, dated 2017).
One block for each compound: values may come before it.

Test: Hygroscopic study: water content by KF and description after exposure to 25° C./60% RH and 25° C./90% RH
Assay type: physicochemical
Method: Method for Measuring the Water Content
About 10 g canagliflozin was exposed to 25° C. and 60% relative humidity and 25° C. and 90% relative humidity conditions. About 300 mg of sample was withdrawn each time at the timely intervals of 1 hr, 2 hrs, 4 hrs, 8 hrs, 12 hrs, 24 hrs and 48 hrs from the conditions and tested for description and water content by KF. The water content was calculated by the following formula: […]
Results of Hygroscopic Study for Canagliflozin Obtained as Per Example 16

- Description (25° C./60% RH, 1 hr): Off white
- Moisture content by KF (%) (25° C./60% RH, 1 hr): 2.22%
- Description (25° C./60% RH, 2 hrs): Off white
- Moisture content by KF (%) (25° C./60% RH, 2 hrs): 2.29%
- Description (25° C./60% RH, 4 hrs): Off white
- Moisture content by KF (%) (25° C./60% RH, 4 hrs): 2.33%
- Description (25° C./60% RH, 8 hrs): Off white
- Moisture content by KF (%) (25° C./60% RH, 8 hrs): 2.35%
- Description (25° C./60% RH, 12 hrs): Off white
- Moisture content by KF (%) (25° C./60% RH, 12 hrs): 2.39%
- Description (25° C./60% RH, 24 hrs): Off white
- Moisture content by KF (%) (25° C./60% RH, 24 hrs): 2.42%
- Description (25° C./60% RH, 48 hrs): Off white
- Moisture content by KF (%) (25° C./60% RH, 48 hrs): 2.49%
- Description (25° C./60% RH, Initial): Off white
- Moisture content by KF (%) (25° C./60% RH, Initial): 2.19%
- Description (25° C./90% RH, 1 hr): Off white
- Moisture content by KF (%) (25° C./90% RH, 1 hr): 2.36%
- Description (25° C./90% RH, 2 hrs): Off white
- Moisture content by KF (%) (25° C./90% RH, 2 hrs): 2.48%
- Description (25° C./90% RH, 4 hrs): Off white
- Moisture content by KF (%) (25° C./90% RH, 4 hrs): 2.52%
- Description (25° C./90% RH, 8 hrs): Off white
- Moisture content by KF (%) (25° C./90% RH, 8 hrs): 2.69%
- Description (25° C./90% RH, 12 hrs): Off white
- Moisture content by KF (%) (25° C./90% RH, 12 hrs): 2.87%
- Description (25° C./90% RH, 24 hrs): Off white
- Moisture content by KF (%) (25° C./90% RH, 24 hrs): 3.17%
- Description (25° C./90% RH, 48 hrs): Off white
- Moisture content by KF (%) (25° C./90% RH, 48 hrs): 3.48%
- Description (25° C./90% RH, Initial): Off white
- Moisture content by KF (%) (25° C./90% RH, Initial): 2.19%
SMILES: Cc1ccc([C@@H]2O[C@H](CO)[C@@H](O)[C@H](O)[C@H]2O)cc1Cc1ccc(-c2ccc(F)cc2)s1 [Canagliflozin, 1(S)-1,5-anhydro-1-[3[[5-(4-fluorophenyl)-2-thienyl]methyl]-4-methylphenyl]-D-glucitol]

- increase of moisture content (exposed for 48 hours to 25° C. and 60% relative humidity): ≤ 0.4%
- increase of moisture content (exposed for 48 hours to 25° C. and 90% relative humidity): ≤ 0.4%
SMILES: Cc1ccc([C@@H]2O[C@H](CO)[C@@H](O)[C@H](O)[C@H]2O)cc1Cc1ccc(-c2ccc(F)cc2)s1 [amorphous canagliflozin, 1(S)-1,5-anhydro-1-[3[[5-(4-fluorophenyl)-2-thienyl]methyl]-4-methylphenyl]-D-glucitol]
